Assay results published in US8791156B2, “Polyacetylene compound, an extract containing the same and application thereof” (priority 2011, dated 2014).
Read-outs that look alike come from different tables or passages of the source. Blank lines part the entries; values can stand above or below the compound they belong to.

System: mouse macrophage (RAW 264.7 cell)
Experiment: Inhibition of NO production (nitrite by Greiss reaction) in LPS-treated mouse macrophages
Type: cell-based
Details: for IC50: Mus musculus
Text: This embodiment uses an analytical method to induce the macrophage of an inflaming mouse, with combination of Greiss reaction, to measure nitrites so as to indirectly measure the output of nitrogen monoxide (NO). As NO is a significant factor in the inflaming reaction, the output of NO can be used to evaluate the degree of inflaming reaction.
In brief, culture mouse macrophage (RAW 264.7 cell) pre-cultured in a 75 cm^2 culture dish in a 96 well plate at a density of 2×10^5 cells/well. The culture solution used is DMEM with 10% FBS, 100 units/mL penicillin and 100 μg/mL streptomycin. The culturing environment is 37° C. and 5% CO2 cell incubator. Let the normally attaching cells pass or not pass the LPS (1 μg/mL) processing with addition or no addition of the compounds obtained from Embodiment II. Then, use Greiss reaction to measure the concentration of nitrites in the upper clarified liquid of the culture solution after culturing the cells.
The experimental results are shown in FIG. 3, wherein, the ability of each compound to inhibit production of NO is shown through the method of IC50. IC50 represents 50% of the inhibiting concentration, i.e., […]. From the data in the figure, it is known that the compounds obtained from Embodiment II all manifest an effect of inhibiting production of NO, i.e., an anti-inflammation effect.

[1] = RAW 264.7 cells, LPS 1 μg/mL, FIG. 3

IC50 (RAW264.7, RAW 264.7 cells, LPS 1 μg/mL, nitrites by Greiss reaction, FIG. 3, printed in brackets as 'about', read-out: IC50 of inhibiting production of NO (approximate range)): 20 to 35 µg/mL
IC50 (RAW264.7, RAW 264.7 cells, LPS 1 μg/mL, nitrites by Greiss reaction, FIG. 3, read-out: IC50 of inhibiting production of NO): > 20 µg/mL
Structure (SMILES): COc1cc(C)c(OC)c2c1OCO2 [Compound b, 1,4-dimethoxy-2,3-methylenedioxy-5-methylbenzene]

Structure (SMILES): C=C(C)C#Cc1c(OC)cc(OC)c(OC)c1C [Compound d, Antrocamphin A]
anti-inflammation ability (inhibiting production of NO), in words [1]: excellent anti-inflammation ability

Structure (SMILES): C=C(C)C#Cc1c(C)c2c(c(OC)c1OC)OCO2 [Compound h, Antrocamphin C]
anti-inflammation ability (inhibiting production of NO), in words [1]: excellent anti-inflammation ability

Structure (SMILES): C=C(CC[C@@H](C(=O)O)[C@H]1CC[C@@]2(C)C3=CC[C@H]4C(C)(C)[C@@H](O)CC[C@]4(C)C3=CC[C@]12C)C(C)C [Compound m, Dehydroeburicoic acid]
IC50 (RAW264.7, read-out: IC50 of inhibiting production of NO): > 20 µg/mL
IC50 (RAW264.7, read-out: IC50 of inhibiting production of NO (approximate range)): 20 to 35 µg/mL
